We go through 23 molecules from patent publication US11840528B2 (Hoffmann-La Roche Inc., priority 2018, dated 2023).

Test [1] has as its target T1, h-GABA-A α5β3γ2 (Homo sapiens, UniProt P18507+P31644). Put plainly: [3H]flumazenil competition binding assay, membranes of HEK293 cells expressing GABAA receptors. The settings on record: displacement of [3H]-Flumazenil 0.5 nM, HEK293 cells expressing human receptors, mean of two determinations; Table 1. In outline: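 Receptor source: human α5β3γ2 transiently transfected into HEK293 cells, membranes in pH 7.5 Krebs-tris. Filtration through GF/C, then scintillation counting.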

Test [2] deals with T1, h-GABA-A α5β3γ2. Put plainly: Two-electrode voltage clamp electrophysiology in Xenopus laevis oocytes expressing GABAA receptors, modulation of GABA EC20 current. The format is cell-based. On the set-up: host or cells: Xenopus laevis oocytes micro-injected with RNA transcripts of the subunits. The settings on record: Table 1; for Efficacy (GABA) %: % modulation of GABA EC20 = 100*(Fold increase-1); for Fold increase h-GABA-A α5β3γ2 oocyte: test compound at approx. 30 fold its Ki, GABA at EC20. In outline:
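Modulation is reported as % of the GABA EC20 current, calculated as 100*(Fold increase−1) from the peak ratio between a second GABA response carrying compound (applied at roughly 30-fold Ki) and a preceding control response. Oocytes expressing human α5β3γ2 were clamped at −80 mV at room temperature, 3–5 days after injection.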

On to `C[C@@H]1CN(c2cnn(Cc3c(-c4ccc(Cl)cn4)noc3C3CC3)c(=O)c2)C[C@H](C)O1` [Example 14, 2-((3-(5-Chloropyridin-2-yl)-5-cyclopropylisoxazol-4-yl)methyl)-5-(cis-2,6-dimethylmorpholino)pyridazin-3(2H)-one], for which, in test [1], the Ki (commonly a dissociation constant, usually derived from enzyme kinetics or from competition with a known ligand) turned out to be 1.5 nM. Moreover, in test [2], the “Efficacy (GABA) %” value worked out at 166% and the “Fold increase h-GABA-A α5β3γ2 oocyte” value was 2.66.
On the same counts, the results for `Cc1ccc(-c2noc(C)c2Cn2ncc(N3CC[C@H](C(C)(C)O)C3)cc2=O)cn1` [Example 120, 5-((3S)-3-(2-hydroxypropan-2-yl)pyrrolidin-1-yl)-2-((5-methyl-3-(6-methylpyridin-3-yl)-1,2-oxazol-4-yl)methyl)pyridazin-3-one] are 7.3 nM, 172% and 2.72.
On the same counts, the results for `Cc1onc(-c2ccc(Cl)nc2)c1Cn1ncc(N2CC3(CCC(C(F)(F)F)CO3)C2)cc1=O` (single isomer, unassigned) [Example 323] are 43.1 nM, 76% and 1.76.
For `Cc1ccc(-c2noc(C)c2Cn2ncc(N3CC4(CN(C)C4)C3)cc2=O)cn1` [Example 82, 5-(6-methyl-2,6-diazaspiro[3.3]heptan-2-yl)-2-[[5-methyl-3-(6-methyl-3-pyridyl)isoxazol-4-yl]methyl]pyridazin-3-one], in that order: 32.8 nM, 245% and 3.45.
Molecule `Cc1onc(-c2ncc(C(F)(F)F)cn2)c1Cn1ncc(N2CC(OC3CC3)C2)cc1=O` [Example 249, 5-(3-cyclopropoxyazetidin-1-yl)-2-((5-methyl-3-(5-(trifluoromethyl)pyrimidin-2-yl)isoxazol-4-yl)methyl)pyridazin-3(2H)-one] showed a Ki in test [1] of 2.2 nM. In test [2], the “Efficacy (GABA) %” value is listed as 60% and the “Fold increase h-GABA-A α5β3γ2 oocyte” value was determined as 1.6.
For `Cc1onc(-c2ccc(Cl)nc2)c1Cn1ncc(N2CCO[C@@H](C)C2)cc1=O` [Example 227, (S)-2-((3-(6-chloropyridin-3-yl)-5-methylisoxazol-4-yl)methyl)-5-(2-methylmorpholino)pyridazin-3(2H)-one], in that order: 4.4 nM, 149% and 2.49.
On the same counts, the results for `COc1ncc(-c2cnn(Cc3c(-c4ccc(C)nc4)noc3C)c(=O)c2)cc1Cl` [Example 188, 5-(5-chloro-6-methoxypyridin-3-yl)-2-((5-methyl-3-(6-methylpyridin-3-yl)isoxazol-4-yl)methyl)pyridazin-3(2H)-one] are 8.6 nM, 210% and 3.1.
For `Cc1ccc(-c2noc(C)c2Cn2ncc(N3CC(C)(O)C3)cc2=O)cn1` [Example 98, 5-(3-hydroxy-3-methyl-azetidin-1-yl)-2-[[5-methyl-3-(6-methyl-3-pyridyl)isoxazol-4-yl]methyl]pyridazin-3-one], in that order: 7.3 nM, 132% and 2.32.
On to `Cc1ncc(-c2noc(C)c2Cn2ncc(N3C[C@@H](C)O[C@@H](C)C3)cc2=O)cc1F` [Example 205, 5-((2R,6S)-2,6-dimethylmorpholino)-2-((3-(5-fluoro-6-methylpyridin-3-yl)-5-methylisoxazol-4-yl)methyl)pyridazin-3(2H)-one], for which the Ki in test [1] turned out to be 2 nM. For the same molecule, in test [2], the “Efficacy (GABA) %” value is 253% and the “Fold increase h-GABA-A α5β3γ2 oocyte” value came to 3.53.
For the molecule `Cc1ccc(-c2noc(C)c2Cn2ncc(-c3cnn(CC4(C)COC4)c3)cc2=O)cn1` [Example 176, 2-((5-methyl-3-(6-methylpyridin-3-yl)isoxazol-4-yl)methyl)-5-(1-((3-methyloxetan-3-yl)methyl)-1H-pyrazol-4-yl)pyridazin-3(2H)-one], the Ki in test [1] is 29.7 nM. In test [2], the “Efficacy (GABA) %” value was found to be 103% and the “Fold increase h-GABA-A α5β3γ2 oocyte” value worked out at 2.03.
In test [1], `Cc1onc(-c2ccc(C(F)(F)F)nc2)c1Cn1ncc(N2C[C@@H](C)O[C@@H](C)C2)cc1=O` [Example 39, 5-(cis-2,6-dimethylmorpholin-4-yl)-2-[[5-methyl-3-[6-(trifluoromethyl)-3-pyridyl]isoxazol-4-yl]methyl]pyridazin-3-one] showed a Ki of 3.2 nM. In addition, in test [2], the “Efficacy (GABA) %” value is 198% and the “Fold increase h-GABA-A α5β3γ2 oocyte” value amounted to 2.98.
On the same counts, the results for `Cc1onc(-c2ccc(F)cc2)c1Cn1ncc(N2C[C@@H](C)O[C@@H](C)C2)cc1=O` [Example 12, 5-(cis-2,6-Dimethylmorpholino)-2-((3-(4-fluorophenyl)-5-methylisoxazol-4-yl)methyl)pyridazin-3(2H)-one] are 3.8 nM, 114% and 2.14.
In turn, `Cc1ncccc1N1CCN(c2cnn(Cc3c(-c4ccc(Cl)nc4)noc3C)c(=O)c2)CC1` [Example 285, 2-((3-(6-chloropyridin-3-yl)-5-methylisoxazol-4-yl)methyl)-5-(4-(2-methylpyridin-3-yl)piperazin-1-yl)pyridazin-3(2H)-one] had a Ki in test [1] of 2.6 nM. In test [2], the “Efficacy (GABA) %” value came out at 84% and the “Fold increase h-GABA-A α5β3γ2 oocyte” value is recorded as 1.84.
Molecule `Cc1ccc(-c2noc(C)c2Cn2ncc(N3CC4(CC(F)CCO4)C3)cc2=O)cn1` (single isomer, unassigned) [Example 273] had a Ki in test [1] of 30 nM. Further, in test [2], the “Efficacy (GABA) %” value stood at 126% and the “Fold increase h-GABA-A α5β3γ2 oocyte” value came to 2.26.
For the molecule `Cc1ccc(-c2noc(C)c2Cn2ncc(N3CCC(C#N)CC3)cc2=O)cn1` [Example 34, 1-[1-[[5-methyl-3-(6-methyl-3-pyridyl)isoxazol-4-yl]methyl]-6-oxo-pyridazin-4-yl]piperidine-4-carbonitrile], in test [1], affinity was put at a Ki of 4.3 nM. Besides, in test [2], the “Efficacy (GABA) %” value was determined as 222% and the “Fold increase h-GABA-A α5β3γ2 oocyte” value was found to be 3.22.
For `Cc1ccc(-c2noc(C)c2Cn2ncc(N3CC4(CC(C(F)(F)F)CCO4)C3)cc2=O)nn1` (single isomer, unassigned) [Example 311], in that order: 2.4 nM, 88% and 1.88.
For `Cc1ccc(-c2noc(C)c2Cn2ncc(N3CC(Oc4cccc(F)c4)C3)cc2=O)cn1` [Example 127, 5-[3-(3-fluorophenoxy)azetidin-1-yl]-2-[[5-methyl-3-(6-methyl-3-pyridyl)isoxazol-4-yl]methyl]pyridazin-3-one], in that order: 7.3 nM, 153% and 2.53.
For `Cc1ccc(-c2noc(C)c2Cn2ncc(N3CC4(CCC(F)CO4)C3)cc2=O)cn1` (single isomer, unassigned) [Example 275], in that order: 4.6 nM, 89% and 1.89.
Take `Cc1ccc(-c2noc(C)c2Cn2ncc(N3CC4(CCOCC4)C3)cc2=O)cn1` [Example 199, 2-((5-methyl-3-(6-methylpyridin-3-yl)isoxazol-4-yl)methyl)-5-(7-oxa-2-azaspiro[3.5]nonan-2-yl)pyridazin-3(2H)-one]: in test [1], the affinity, expressed as Ki, was 19.4 nM. In test [2], the “Efficacy (GABA) %” value was 117% and the “Fold increase h-GABA-A α5β3γ2 oocyte” value was determined as 2.17.
On to `Cc1ccc(-c2noc(C)c2Cn2ncc(N3CCC4(CCOCC4)CC3)cc2=O)nn1` [Example 247, 2-[[5-methyl-3-(6-methylpyridazin-3-yl)isoxazol-4-yl]methyl]-5-(3-oxa-9-azaspiro[5.5]undecan-9-yl)pyridazin-3-one], for which the affinity in test [1], expressed as Ki, was 2.8 nM. In test [2], the “Efficacy (GABA) %” value turned out to be 94% and the “Fold increase h-GABA-A α5β3γ2 oocyte” value came to 1.94.
For `Cc1ccc(-c2noc(C)c2Cn2ncc(N3CC(OC4(C)CC4)C3)cc2=O)nn1` [Example 305, 5-[3-(1-methylcyclopropoxy)azetidin-1-yl]-2-[[5-methyl-3-(6-methylpyridazin-3-yl)isoxazol-4-yl]methyl]pyridazin-3-one], in that order: 2.5 nM, 100% and 2.
In turn, `Cc1onc(-c2ncc(Cl)cc2F)c1Cn1ncc(N2CCN(C(=O)C3(C)CC3)CC2)cc1=O` [Example 53, 2-[[3-(5-chloro-3-fluoro-2-pyridyl)-5-methyl-isoxazol-4-yl]methyl]-5-[4-(1-methylcyclopropanecarbonyl)piperazin-1-yl]pyridazin-3-one] yielded a Ki in test [1] of 9.8 nM. Also, in test [2], the “Efficacy (GABA) %” value was 152% and the “Fold increase h-GABA-A α5β3γ2 oocyte” value was 2.52.
For `Cc1onc(-c2ccc(Cl)nc2)c1Cn1ncc(N2CC3(C[C@H](C)CCO3)C2)cc1=O` [Example 322, (R)-2-((3-(6-chloropyridin-3-yl)-5-methylisoxazol-4-yl)methyl)-5-(8-methyl-5-oxa-2-azaspiro[3.5]nonan-2-yl)pyridazin-3(2H)-one], in that order: 71.1 nM, 73% and 1.73.
